# Data published in patent US20230042729A1, “PEPTIDE CONSTRUCTS AND COMPOSITIONS” (DIET4LIFE APS, priority 2019, published 2023).
# No end group written: not given here.
# B1: trypsin in porcine pancreatin (protein)
# chain: IVGGYTCAANSIPYQVSLNSGSHFCGGSLINSQWVVSAAHCYKSRIQVRLGEHNIDVLEGNEQFINAAKIITHPNFNGNTLDNDIMLIKLSSPATLNSRVATVSLPRSCAAAGTECLISGWGNTKSSGSSYPSLLQCLKAPVLSDSSCKSSYPGQITGNMICVGFLEGGKDSCQGDSGGPVVCNGQLQGIVSWGYGCAQKNKPGVYTKVCNYVNWIQQTIAAN
# Key:
# [1] = Stability of peptides ex vivo in rodent intestine; format: in vitro ADME, mouse or rat; conditions: rodent intestine model of degradation
# Description: 0,001 mg/ml of the indicated peptides were incubated with pieces of rodent intestine (mouse and rat intestine gave similar results) for up to 10 minutes at 37° C. Recovery of activity was tested with dose-response curves as indicated.
# FIG. 9. Stability of peptides in rodent intestine. EC50 values for different peptides and different incubation times were calculated from FIG. 8 and recovered activity plotted as a function of time.
# Peptides are degraded by proteases in the gastrointestinal tract. However the speed of this degradation depends on the sequence of the peptide. In order to measure stability of the […] peptide series and to compare with e.g. RRKPYIL, 10 or 50 mg (wet weight) of mouse or rat intestinal tissue (distal ileum) was equilibrated in V-bottom 24 well plates in 800 μl HBSS, 25 mM HEPES, pH 7.4 at 37° C. with shaking at 350 rpm. Identical amounts of different peptides (final concentration of 1 μg/ml) were added to the intestinal pieces and incubation continued. At various time points, 100 μl aliquots were removed and diluted into whey protein hydrolysate (final concentration of 10 mg/ml) to non-specifically compete protease activity. Peptide solutions were then diluted and tested for bioactivity (FIG. 8). Peptides incubated under same conditions but in absence of intestine served as controls (no degradation). […]
# murine intestinal cells = murine intestinal cells (Mus musculus, UniProt O88319); test: Ca2+ flux / calcium response assay (cell signaling activity); format: cell-based
# Description: Ca^2+ Flux Assay/Calcium Response Assay:
# Elevation of intracellular calcium level was measured using the fluorescent calcium chelating dye Fluo-4 AM (ThermoFischer Scientific, Denmark). Briefly, cells were grown as a monolayer in 96-well tissue culture plates (Sarstedt, Germany) to near confluence in appropriate growth medium as described in the cell culture section.
# All test compounds were dissolved in water, and then diluted in 1×HBSS containing 25 mM HEPES (pH 7.4), 1% BSA and 2% ink. […]
# [2] = Stability of peptides in serum, remaining activity read in intestinal cells; format: in vitro ADME, Bovine; conditions: octapeptides; fraction of peptide activity left after 10 min of incubation in serum at 37° C. compared with undigested sample
# Description: All peptides were incubated at 10^−5 M with Fetal Bovine Serum (FBS; final concentration of 66.7%) (Sigma Aldrich, Denmark) at 37° C. for 3 hours. The peptide degradation was terminated using 1 M phosphoric acid (final 0.4 M, pH˜1.2) and neutralized to pH 7.2-7.4 with NaOH before testing activity in intestinal cells. As for small intestine homogenates, a zero degradation control was included for each peptide.
# DC7-2, NT, DKPYIL and NT-(8-13) (final concentration of 10^−6 M) were incubated either with FBS or with 270× diluted intestinal homogenate at 37° C. for various time points with shaking. Degradation was stopped with 1 M phosphoric acid and the samples were subsequently neutralized and immediately tested with intestinal cells as described above. Control for zero degradation was included for each peptide as above.
# (§1) The 20 hexapeptides with systematic N-terminal substitutions (X-KPYIL) (Schafer-N, Denmark) and NT (8-13) was incubated at 10^−6 M in either FBS for 10 minutes or with 270× diluted intestinal homogenate for 30 minutes at 37° C. with shaking. The degradation was stopped with 1 M phosphoric acid. Peptide solutions were neutralized with NaOH (pH 7.2-7.4), diluted and immediately tested for bioactivity using murine intestinal cells. Determination of EC50 for stimulation of cells allowed calculation of recovered peptide.
# carboxypeptidases = test: Stability studies of DC7-2: carboxypeptidases; format: in vitro ADME
# [3] = Stability of peptides in intestine homogenate, remaining activity read in intestinal cells; format: in vitro ADME, mice; conditions: octapeptides; % activity left after 30 min incubation in intestine homogenate at 37° C.
# Description: Small intestines from 20 Swiss-Webster males were homogenized in 350 ml Dulbecco's phosphate-buffered saline (PBS) (pH 7.4) (ThermoFischer Scientific, Denmark) with a IKA® basic 18 Ultra-Turrax tissue homogenizer set a speed 5 followed by filtration using 100 μm nylon mesh filter. Protein concentration was 6 mg/ml using the bicinconinic acid assay (ThermoFischer Scientific, Denmark) and bovine serum albumin as standard. The intestine homogenate was diluted 10 times in HBSS containing 25 mM HEPES (pH 7.4), and further diluted 30×, 90×, 270×, 810× or 2430× before incubation with peptides. All solutions were prewarmed to 37° C. before mixing with peptide solutions.
# Peptides were incubated at 10^−5 M with dilutions of small intestine homogenate at 37° C. for 90 minutes with shaking. Reactions were stopped by addition of 1 M phosphoric acid (final 0.4 M, pH˜1.2). Each peptide incubation mix was then neutralized with NaOH to pH 7.2-7.4 and immediately tested for activity in intestinal cells. Control for zero degradation, i.e. addition of 1 M phosphoric acid prior to addition of intestine homogenate, was included for each peptide. […]
# as §1
# chymotrypsin = chymotrypsin (Homo sapiens, UniProt P17538); test: Stability studies of DC7-2: chymotrypsin; format: in vitro ADME
# gastric pepsin = gastric pepsin (Homo sapiens, UniProt P0DJD8); test: Stability studies of DC7-2: pepsin; format: in vitro ADME
# trypsin = trypsin (Homo sapiens, UniProt P07477); test: Stability studies of DC7-2: trypsin; format: in vitro ADME
# carboxypeptidase = test: Carboxypeptidase activity in pancreatin (Hippuryl-L-phenylalanine); format: biochemical, porcine; conditions: 0.1 mg/ml pancreatin (FIG. 23D)
# Text: FIG. 23. Enzymes in intestine homogenate and pancreatin.
# [4] = target: T1, commercial carboxypeptidase inhibitor (CPI) from Potato tuber (UniProt P01075)
# T1 sequence: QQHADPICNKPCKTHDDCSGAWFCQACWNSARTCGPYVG
# [5] = target: trypsin inhibitor T9253 from chicken egg white (UniProt P01005)
# [6] = target: T2, trypsin inhibitor, T9128 from soybean (UniProt P01070)
# T2 sequence: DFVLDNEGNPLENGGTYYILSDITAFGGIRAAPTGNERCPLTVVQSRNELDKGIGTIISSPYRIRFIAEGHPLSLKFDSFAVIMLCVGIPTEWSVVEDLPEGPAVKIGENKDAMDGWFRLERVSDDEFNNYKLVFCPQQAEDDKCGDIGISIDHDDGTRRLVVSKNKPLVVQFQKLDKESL
# [7] = target: T3, trypsin inhibitor T9253 from chicken egg white, P01005
# T3 chain: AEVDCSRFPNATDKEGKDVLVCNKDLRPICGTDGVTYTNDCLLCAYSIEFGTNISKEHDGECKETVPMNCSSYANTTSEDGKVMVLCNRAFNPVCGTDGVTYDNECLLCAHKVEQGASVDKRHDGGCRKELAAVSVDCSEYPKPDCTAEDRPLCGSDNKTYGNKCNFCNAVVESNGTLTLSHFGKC
# [8] = target: T4, trypsin inhibitor, T9128 from soybean, P01070
# T4 chain: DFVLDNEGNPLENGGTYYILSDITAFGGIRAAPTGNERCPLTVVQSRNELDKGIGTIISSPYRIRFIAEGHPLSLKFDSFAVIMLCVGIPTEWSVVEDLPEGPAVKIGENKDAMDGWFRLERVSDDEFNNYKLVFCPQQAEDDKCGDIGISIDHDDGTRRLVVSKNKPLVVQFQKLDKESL
# Chain of murine intestinal cells (O88319 whole entry): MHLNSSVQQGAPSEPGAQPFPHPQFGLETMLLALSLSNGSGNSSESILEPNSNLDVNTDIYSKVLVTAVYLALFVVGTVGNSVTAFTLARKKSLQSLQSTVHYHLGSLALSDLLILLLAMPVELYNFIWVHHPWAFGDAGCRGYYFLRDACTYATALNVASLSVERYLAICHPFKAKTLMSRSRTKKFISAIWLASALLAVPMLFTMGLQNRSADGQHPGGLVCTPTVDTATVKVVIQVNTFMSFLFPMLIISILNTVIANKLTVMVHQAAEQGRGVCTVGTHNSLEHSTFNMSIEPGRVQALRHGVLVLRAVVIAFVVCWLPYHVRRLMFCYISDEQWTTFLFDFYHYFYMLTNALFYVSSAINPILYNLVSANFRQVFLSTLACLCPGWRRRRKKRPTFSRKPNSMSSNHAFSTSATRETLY
# Chain of chymotrypsin (P17538 19-263): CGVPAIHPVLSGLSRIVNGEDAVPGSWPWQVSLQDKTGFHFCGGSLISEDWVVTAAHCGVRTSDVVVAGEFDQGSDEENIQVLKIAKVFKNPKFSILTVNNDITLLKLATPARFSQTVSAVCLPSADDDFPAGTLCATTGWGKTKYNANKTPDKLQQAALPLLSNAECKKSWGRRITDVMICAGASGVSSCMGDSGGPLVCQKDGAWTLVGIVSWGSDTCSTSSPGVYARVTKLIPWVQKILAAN
# Chain of gastric pepsin (P0DJD8 63-388): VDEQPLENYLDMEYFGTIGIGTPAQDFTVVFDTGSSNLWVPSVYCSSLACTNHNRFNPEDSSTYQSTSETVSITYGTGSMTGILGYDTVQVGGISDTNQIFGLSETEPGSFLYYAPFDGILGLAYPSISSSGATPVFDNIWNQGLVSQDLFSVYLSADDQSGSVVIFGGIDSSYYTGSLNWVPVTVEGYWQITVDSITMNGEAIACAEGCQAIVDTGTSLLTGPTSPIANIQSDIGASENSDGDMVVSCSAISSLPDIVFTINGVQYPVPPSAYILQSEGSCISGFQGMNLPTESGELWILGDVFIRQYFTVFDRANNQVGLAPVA
molecule,measurement,setting,value
"ASDKPYIL [Peptide 36036, A SDKPYIL]",stability compared with the active fragment of neurotensin,[1],100-1000 times
same,EC50,murine intestinal cells,3.51 nM
same,Stability in serum (activity remaining),[2],0.0988
same,sensitivity to carboxypeptidases,carboxypeptidases,sensitive
same,Stability in intestine (activity remaining),[3],6.0%
same,sensitivity to chymotrypsin,chymotrypsin,sensitive
same,degradation by gastric pepsin,gastric pepsin,resilient
same,sensitivity to trypsin,trypsin,sensitive
CPI: commercial carboxypeptidase inhibitor from Potato tuber (QQHADPICNKPCKTHDDCSGAWFCQACWNSARTCGPYVG),carboxypeptidase activity,carboxypeptidase,efficiently suppressed
"WSDKPYIL [Peptide 36054, W SDKPYIL]",EC50,murine intestinal cells,8.87 nM
same,Stability in serum (activity remaining),[2],0.0426
same,Stability in intestine (activity remaining),[3],3.6%
"YSDKPYIL [Peptide 36055, Y SDKPYIL]",EC50,murine intestinal cells,5.92 nM
same,Stability in serum (activity remaining),[2],0.0491
same,Stability in intestine (activity remaining),[3],3.0%
carboxypeptidase in porcine pancreatin,"carboxypeptidase activity (Hippuryl-L-phenylalanine substrate, slope of kinetic absorbance)",[4],"carboxypeptidase activity, which was efficiently suppressed by a commercial carboxypeptidase inhibitor (CPI) from Potato tuber"
trypsin in intestine homogenate (mouse small intestine),"trypsin activity (conversion of L-BAPA, slope of kinetic absorbance)",[5],"Intestinal and pancreatic trypsin activity was inhibited in a dose-dependent manner by two specific trypsin inhibitors from soybean and chicken egg white, respectively"
same,"trypsin activity (conversion of L-BAPA, slope of kinetic absorbance)",[6],"Intestinal and pancreatic trypsin activity was inhibited in a dose-dependent manner by two specific trypsin inhibitors from soybean and chicken egg white, respectively"
B1,"trypsin activity (conversion of L-BAPA, slope of kinetic absorbance)",[7],"Intestinal and pancreatic trypsin activity was inhibited in a dose-dependent manner by two specific trypsin inhibitors from soybean and chicken egg white, respectively"
same,"trypsin activity (conversion of L-BAPA, slope of kinetic absorbance)",[8],"Intestinal and pancreatic trypsin activity was inhibited in a dose-dependent manner by two specific trypsin inhibitors from soybean and chicken egg white, respectively"
